In ChEMBL document CHEMBL1151156, “Lakoochins A and B, new antimycobacterial stilbene derivatives from Artocarpus lakoocha” (J Nat Prod, 2004):
In brackets after ≈: the same amount, converted by molar mass. Activity calls are given as the source filed them. The rule behind the calls is not given here.

What was measured:
[1] = Cytotoxicity against human BC cells by SRB assay; assay type: functional, cell-based
[2] = system: Mycobacterium tuberculosis; experiment: Antimycobacterial activity against Mycobacterium tuberculosis H37Ra after 4 days by microplate alamar blue assay; assay type: functional; details: 96 h
KB [3] = experiment: Cytotoxicity against human KB cells at 20 ug/ml by SRB assay; assay type: functional, cell-based
KB [4] = experiment: Cytotoxicity against human KB cells by SRB assay; assay type: functional, cell-based

SMILES: Cc1c2ccncc2c(C)c2c1[nH]c1ccccc12 [ELLIPTECINE]
- IC50 [1]: 0.2 µg/mL (≈ 0.812 µM)

SMILES: NNC(=O)c1ccncc1 [ISONIAZID]
- MIC [2]: 0.04 µg/mL (≈ 0.292 µM)

SMILES: NC[C@H]1O[C@H](O[C@H]2[C@H](O)[C@@H](O[C@H]3O[C@H](CO)[C@@H](O)[C@H](N)[C@H]3O)[C@H](N)C[C@@H]2N)[C@H](O)[C@@H](O)[C@@H]1O.O=S(=O)(O)O [KANAMYCIN SULFATE]
- MIC [2]: 2 µg/mL

SMILES: COc1cc(OC)c(CC=C(C)C)c(-c2cc3ccc(O)cc3o2)c1CC=C(C)C [LAKOOCHIN A]
- IC50 [1]: 6.1 µg/mL (≈ 15 µM)
- Activity (KB [3]): inactive
- MIC [2]: 12.5 µg/mL (≈ 30.7 µM)

SMILES: CC(C)=CCC/C(C)=C/Cc1c(O)cc(O)c(CC=C(C)C)c1-c1cc2ccc(O)cc2o1 [LAKOOCHIN B]
- IC50 [1]: 3.1 µg/mL (≈ 6.94 µM)
- IC50 (KB [4]): 6.1 µg/mL (≈ 13.7 µM)
- MIC [2]: 50 µg/mL (≈ 112 µM)
